Experimental data from patent publication US20210346506A1, “PRODRUG OF ITRACONAZOLE AND USES THEREOF” (priority 2020, published 2021).

What was measured:
[1] = Compound stability test in mouse blood; type: in vitro ADME; conditions: 37° C., 1 μM; for half-life at 1 μM: male, CD-1, in vitro half-life in mouse blood; for Remaining Percentages (%): mouse blood
Procedure: (§1) One (1) mM test compound working solution was prepared in DMSO. One (1) mM propantheline working solution was prepared in acetonitrile, wherein propantheline was used as positive control in this assay.
(§2) Ten (10) μL of each test compound solution and the control compound solution were respectively added into a 96 deep well plate, and 40 μL of acetonitrile:water (V/V=1:1) was added to each well to dilute the 1 mM test compound solution to 200 μM working solution.
(§3) Mouse blood (male CD-1 mouse blood, Pharmaron, Lot# PH-ADME-Mouse-20180329) or human blood (Pharmaron, Lot# PH-ADME-Human-20180329) of 398 μL was added to each well of an incubation plate, and then the incubation plate was pre-warmed at 37° C. for 15 minutes. After the pre-incubation, 2 μL of 200 μM working solution prepared above was spiked to the pre-warmed 398 μL blood to reach a final concentration of 1 μM. The final concentration of DMSO was 0.1% and the final concentration of acetonitrile was 0.2%. The assay was performed in duplicate.
(§4) The incubation plate was incubated at 37° C. water bath with shaking at 50 rpm, and aliquots of 50 μL were taken from each well of the incubation plate at 0, 10, 30, 60, 90, 120 and 180 minutes.
(§5) The reaction was stopped by the addition of 50 μL of pure water. The plate was vortexed for 30 seconds at 1,000 rpm and then added with 300 μL of cold acetonitrile containing internal standards (100 nM aprozolam, 200 nM caffeine, 100 nM tolbutamide).
(§6) All samples were vortexed for 10 minutes, followed by centrifugation at 14,000 rpm for 15 minutes to precipitate proteins. 100 μL of each supernatant was transferred to a new plate, and diluted with ultrapure water according to the LC-MS signal response and peak shape.
(§7) Samples were analyzed by LC-MS/MS.
(§8) • LC system: ACQUITY UPLC® I-Class • MS analysis: Waters XEVO® TQ-D with an ESI interface • Column temperature: 40° C. • Injection volume: 3 μL • Column: Waters XSelect HSS T3 C18, 2.5 μm, 2.1×50 mm column • Mobile phase: 0.1% formic acid in water (A) and 0.1% formic acid in acetonitrile (B)
(§9) • Ion source: Turbo spray • Ionization model: ESI • Scan type: MRM • Cone gas: 150 L/h • Desolvation gas: 1000 L/h • Desolvation temperature: 500° C. • Capillary voltage: 3.00 KV
(§10) All calculations were carried out using Microsoft Excel. Peak area ratios were determined from extracted ion chromatograms, and percent compounds remaining at each time point were calculated by the following equation:
(§11) Remaining Percentaget min(%)=Peak Area Ratiot min/Peak Area Ratio0 min×100, where Peak Area Ratiot min referred to peak area ratio of control and test compounds at t min; and Peak Area Ratio0 min referred to peak area ratio of control and test compounds at zero time point. The in vitro half-life (in vitro t1/2) was determined from the slope value: In vitro T1/2=−(0.693/k).

[2] = Compound stability test in human blood; type: in vitro ADME; conditions: 37° C., 1 μM; for Remaining Percentages (%): human blood; for half-life at 1 μM: in vitro half-life in human blood
Procedure: as §1, §2, §3, §4, §5, §6, §7, §8, §9, §10, §11

CC(C)[N+](C)(CCOC(=O)C1c2ccccc2Oc2ccccc21)C(C)C [Propantheline, propantheline, reference compound]
half-life at 1 μM [1]: 38.8 min | Remaining Percentages (%) ([1]; 0 min): 100% | Remaining Percentages (%) ([1]; 10 min): 88.8% | Remaining Percentages (%) ([1]; 30 min): 62.4% | Remaining Percentages (%) ([1]; 60 min): 34.8% | Remaining Percentages (%) ([1]; 90 min): 20.4% | Remaining Percentages (%) ([1]; 120 min): 12.3% | Remaining Percentages (%) ([1]; 180 min): 4.44% | Remaining Percentages (%) ([2]; 0 min): 100% | Remaining Percentages (%) ([2]; 10 min): 85.5% | Remaining Percentages (%) ([2]; 30 min): 55.8% | Remaining Percentages (%) ([2]; 60 min): 29.2% | Remaining Percentages (%) ([2]; 90 min): 15.2% | Remaining Percentages (%) ([2]; 120 min): 6.83% | Remaining Percentages (%) ([2]; 180 min): 1.84% | half-life at 1 μM [2]: 32.8 min

CCCOC(=O)OC[n+]1cnn(CC2(c3ccc(Cl)cc3Cl)OCC(COc3ccc(N4CCN(c5ccc(-n6cnn(C(C)CC)c6=O)cc5)CC4)cc3)O2)c1.[Cl-] (centres unmarked) [Compound 7]
half-life at 1 μM [1]: 7.12 min | Remaining Percentages (%) ([1]; 0 min): 100% | Remaining Percentages (%) ([1]; 10 min): 37.3% | Remaining Percentages (%) ([1]; 30 min): BLOD | Remaining Percentages (%) ([1]; 60 min): BLOD | Remaining Percentages (%) ([1]; 90 min): BLOD | Remaining Percentages (%) ([1]; 120 min): BLOD | Remaining Percentages (%) ([1]; 180 min): BLOD | Remaining Percentages (%) ([2]; 0 min): 100% | Remaining Percentages (%) ([2]; 10 min): 25.3% | Remaining Percentages (%) ([2]; 30 min): BLOD | Remaining Percentages (%) ([2]; 60 min): BLOD | Remaining Percentages (%) ([2]; 90 min): BLOD | Remaining Percentages (%) ([2]; 120 min): BLOD | Remaining Percentages (%) ([2]; 180 min): BLOD | half-life at 1 μM [2]: 5.07 min

CCC(C)n1ncn(-c2ccc(N3CCN(c4ccc(OCC5COC(Cn6c[n+](COC(=O)C(C)(C)C)cn6)(c6ccc(Cl)cc6Cl)O5)cc4)CC3)cc2)c1=O.[Cl-] (centres unmarked) [Compound 5]
half-life at 1 μM [1]: 4.84 min | Remaining Percentages (%) ([1]; 0 min): 100% | Remaining Percentages (%) ([1]; 10 min): 23.9% | Remaining Percentages (%) ([1]; 30 min): 1.48% | Remaining Percentages (%) ([1]; 60 min): BLOD | Remaining Percentages (%) ([1]; 90 min): BLOD | Remaining Percentages (%) ([1]; 120 min): BLOD | Remaining Percentages (%) ([1]; 180 min): BLOD | Remaining Percentages (%) ([2]; 0 min): 100% | Remaining Percentages (%) ([2]; 10 min): 69.4% | Remaining Percentages (%) ([2]; 30 min): 30.4% | Remaining Percentages (%) ([2]; 60 min): 9.76% | Remaining Percentages (%) ([2]; 90 min): 5.50% | Remaining Percentages (%) ([2]; 120 min): 2.08% | Remaining Percentages (%) ([2]; 180 min): BLOD | half-life at 1 μM [2]: 18.1 min

CCC(C)n1ncn(-c2ccc(N3CCN(c4ccc(OCC5COC(Cn6c[n+](C)cn6)(c6ccc(Cl)cc6Cl)O5)cc4)CC3)cc2)c1=O.[Cl-] (centres unmarked) [Compound 1]
half-life at 1 μM [1]: 1.77 min | Remaining Percentages (%) ([1]; 0 min): 100% | Remaining Percentages (%) ([1]; 10 min): 2.01% | Remaining Percentages (%) ([1]; 30 min): 0.00% | Remaining Percentages (%) ([1]; 60 min): 0.00% | Remaining Percentages (%) ([1]; 90 min): 0.00% | Remaining Percentages (%) ([1]; 120 min): 0.00% | Remaining Percentages (%) ([1]; 180 min): 0.00% | Remaining Percentages (%) ([2]; 0 min): 100% | Remaining Percentages (%) ([2]; 10 min): 68.5% | Remaining Percentages (%) ([2]; 30 min): 32.6% | Remaining Percentages (%) ([2]; 60 min): 12.3% | Remaining Percentages (%) ([2]; 90 min): 7.80% | Remaining Percentages (%) ([2]; 120 min): 2.02% | Remaining Percentages (%) ([2]; 180 min): 0.36% | half-life at 1 μM [2]: 23.1 min

CCC(C)n1ncn(-c2ccc(N3CCN(c4ccc(OCC5COC(Cn6c[n+](COC(=O)C(C)C)cn6)(c6ccc(Cl)cc6Cl)O5)cc4)CC3)cc2)c1=O.[Cl-] (centres unmarked) [Compound 4]
half-life at 1 μM [1]: 6.03 min | Remaining Percentages (%) ([1]; 0 min): 100% | Remaining Percentages (%) ([1]; 10 min): 31.5% | Remaining Percentages (%) ([1]; 30 min): 4.04% | Remaining Percentages (%) ([1]; 60 min): BLOD | Remaining Percentages (%) ([1]; 90 min): BLOD | Remaining Percentages (%) ([1]; 120 min): BLOD | Remaining Percentages (%) ([1]; 180 min): BLOD | Remaining Percentages (%) ([2]; 0 min): 100% | Remaining Percentages (%) ([2]; 10 min): 61.0% | Remaining Percentages (%) ([2]; 30 min): 30.2% | Remaining Percentages (%) ([2]; 60 min): 8.93% | Remaining Percentages (%) ([2]; 90 min): 4.67% | Remaining Percentages (%) ([2]; 120 min): BLOD | Remaining Percentages (%) ([2]; 180 min): BLOD | half-life at 1 μM [2]: 17.7 min
